Assay: Human HepG2 cell viability assay in 384 well format
Type: toxicity, cell-based
Parameters: dose 125 nL, time 70.5 hour; concentration not given beside the values
Details: HepG2 cells, read-out: Inhibition

| Compound | cytotoxicity at 70.5 h [%] |
| --- | --- |
| CCn1nc2c(cc1=O)CN(CC(=O)Nc1cc(C(C)C)no1)CC2 | -8.8 |
| O=C(CSc1ccc2c(c1)OCCO2)NS(=O)(=O)c1cccnc1 | -3.19 |
| O=C(CSc1ccc2c(c1)OCCO2)NS(=O)(=O)c1ccccc1 | -8.6 |
| Cn1cc(-c2csc(N3CCCCCC3)n2)cn1 | -1.01 |
| CC(=O)Nc1ccc(CN2CCOC2=O)cc1 | -9.56 |
| CSc1ccc(S(=O)(=O)NC2CNC(=O)C2)cc1 (stereo not given) | -3.59 |
| CCOCCNC(=O)Nc1cccc(-c2nccn2C)c1 | -10 |
| Cn1cc(-c2nc(CN3CCn4c(nnc4C4CC4)C3)cs2)cn1 | -4.85 |
| O=C(CSc1ccc2c(c1)OCCO2)NS(=O)(=O)c1ccccc1F | -5.01 |
| COCCNC(=O)CN(C)Cc1ccc(F)cc1Cl | -10.1 |
| CC(C#N)CSc1ccccc1NCC(=O)Nc1ccccc1 (stereo not given) | 14.3 |
| COc1ccc(CNC(=O)CN2CCc3ccccc32)cc1 | 27 |
| O=C(CSc1nncs1)N1CCN(Cc2ccc(Cl)cc2)CC1 | 1.53 |
| O=C1NCCCCC1Sc1n[nH]c(=O)n1C1CC1 (stereo not given) | 15.9 |
| COc1cccnc1NC(=O)COc1c(C)cccc1C | 18.3 |
| O=C(CCc1ccsc1)NCC1CCN(Cc2cccs2)CC1 | -4.26 |
| CC1CCN(CCNC(=O)C2CCN(C(=O)NC(C)C)CC2)CC1 | -6.3 |
| COc1cccc(NC(=O)NC(C)(C)c2noc(C)n2)c1 | -4.79 |
| CNC(=O)CCNC(=O)Nc1cccc(Cl)c1SC(F)F | 0.534 |
| O=C(CNC(=O)Nc1cccc(Cl)c1SC(F)F)NC1CC1 | 16.9 |

| Compound | cytotoxicity at 70.5 h [%] |
| --- | --- |
| Cn1cc(CC(=O)N2CCOC(c3nc(C(C)(C)C)n[nH]3)C2)cn1 (stereo not given) | -1.3 |
| COCCN(Cc1ccc(F)cc1Cl)C(=O)c1csnn1 | -2.37 |
| O=C(Nc1ccnc(OC2CCOC2)c1)c1cccs1 (stereo not given) | -4.23 |
| Cc1ccn(-c2ccccc2NCc2scnc2C)n1 | -1.69 |
| OCC1CCN(Cc2cc3c(cc2Br)OCCO3)CC1 | 17.4 |
| CCC1CN(Cc2nnc(C3CC3)o2)CCN1CCOC (stereo not given) | 0.024 |
| CCOCCN1CCN(Cc2nnc(C3CC3)o2)CC1C (stereo not given) | -3.62 |
| CN(Cc1ccco1)C(=O)Nc1ccc(=O)n(C)c1 | 0.639 |
| COc1cccc(CNC(C)c2ccc(-n3ccnc3)cc2)c1O (stereo not given) | -5.24 |
| Cn1cc(CNC2CCS(=O)(=O)C2)c(-c2cc3ccccc3o2)n1 (stereo not given) | 5.22 |
| CCCc1[nH]n(C)c(=N)c1-c1ccc2c(c1)OCO2 | -3.98 |
| CCn1c(=O)n(Cc2nc(C3CC3)no2)c2ccccc21 | 23.4 |
| CCNC(=O)N1CCC(NC(=O)NCCc2cc3ccccc3o2)C1 (stereo not given) | 11.5 |
| COc1ccc(Cl)cc1CNC(=O)CN1CCC2(CCOC2)C1 (stereo not given) | 20 |
| CCOc1cccc(CNC(=O)CN2CCC3(CCOC3)C2)c1 (stereo not given) | -6.18 |
| CC(NC(=O)N(C)Cc1ccncc1)c1cn(-c2ccccc2)nn1 (stereo not given) | 4.1 |
| CCCc1nc(Cn2c(=O)n(C)c3ccccc32)no1 | -6.48 |
| CCOc1cccc(CNC(C)c2ccc(-n3ccnc3)cc2)c1O (stereo not given) | 2.29 |
| CCC(SC)C(=O)N1CCC(n2ccnn2)CC1 (stereo not given) | -7.09 |
| O=C(C(C1CC1)C1CC1)N1CCC(n2ccnn2)CC1 | -9.3 |

| Compound | cytotoxicity at 70.5 h [%] |
| --- | --- |
| Fc1ccc(C2CN(c3ncnc4[nH]ncc34)CCO2)cc1 (stereo not given) | 12.2 |
| c1ccc(-n2nnnc2NCc2ccc3c(c2)OCO3)cc1 | 4.41 |
| CC(Nc1cnn(C)c(=O)c1Cl)c1ccc(F)c(F)c1 (stereo not given) | 39.8 |
| NC(=O)CNC1(c2ccc(Cl)cc2)CCCC1 | 0.922 |
| Cc1cc(S(C)(=O)=O)c(C)c(S(=O)(=O)N2CCCCCC2)c1 | -7.91 |
| Cc1cc(S(C)(=O)=O)c(C)c(S(=O)(=O)N2CCN(C)CC2)c1 | 32.6 |
| CC(C)(C)CC(=O)NCC(=O)Nc1ccn(Cc2ccncc2)n1 | -20.8 |
| NC(=O)NC(=O)CNC1(c2ccc(Cl)cc2)CCC1 | 2.08 |
| Cn1nc(Br)c2c(NCCSCCCO)ncnc21 | -10.5 |
| CC(NC(=O)N1CCNC(=O)CC1)c1ccc(C(F)(F)F)cc1 (stereo not given) | -19.2 |
| CCOCCN1CCCC1CS(N)(=O)=O (stereo not given) | -10.1 |
| CC(NC(=O)N1CCNC(=O)CC1)c1ccc(OC(F)F)cc1 (stereo not given) | -8.12 |
| Cc1ccc(-n2nc(C)cc2N)nn1 | -14.8 |
| CCC(NC(=O)NCc1cccc(N(C)C)n1)c1cccs1 (stereo not given) | -11.8 |
| CSCC(CCO)NC(=O)c1cccc(C)c1Cl (stereo not given) | -13.9 |
| CC(Nc1cnn(C)c(=O)c1Cl)c1ccc(F)cc1 (stereo not given) | -13.1 |
| CN(CC(=O)NCc1ccco1)Cc1nc2c(s1)CCCC2 | 4 |
| COCCn1ccc(NC(=O)CNC(=O)CC(C)(C)C)n1 | 27.5 |
| COCCN1CCN(CC(=O)N(C)Cc2ccc(F)cc2)CC1C (stereo not given) | 23.3 |
| CN(CCCc1cc(-c2cccc(F)c2)n[nH]1)C(=O)CCn1cncn1 | -13.6 |

Source: ChEMBL document CHEMBL3507680, “University of Dundee, Gates Library screen for HepG2 cell viability”
